Laboratory results from US20080248511A1, “METHODS TO QUENCH LIGHT FROM OPTICAL REACTIONS” (priority 2007, published 2008).

What was measured:
[1] = target: T1, Renilla luciferase (Renilla reniformis, UniProt P27652); experiment: Detergent screen with Tergitol NP-9, Renilla luciferase (Example 3); format: biochemical; details: 0.5% Tergitol NP-9; for Retained Renilla Luminescence (%): 0.06% quencher in reagent solution; for Selectivity Value: retained firefly / retained Renilla, 0.06% quencher
T1 sequence (P27652 1-311): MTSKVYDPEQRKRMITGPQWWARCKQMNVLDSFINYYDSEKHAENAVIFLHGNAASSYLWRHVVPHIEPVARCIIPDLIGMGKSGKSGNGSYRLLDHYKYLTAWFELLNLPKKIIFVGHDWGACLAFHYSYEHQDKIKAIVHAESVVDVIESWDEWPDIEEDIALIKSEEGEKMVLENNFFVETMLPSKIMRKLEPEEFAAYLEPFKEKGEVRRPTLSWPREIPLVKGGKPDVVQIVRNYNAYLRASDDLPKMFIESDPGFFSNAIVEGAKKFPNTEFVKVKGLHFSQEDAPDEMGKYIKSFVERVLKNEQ
Procedure: (§1) Unless otherwise specified, materials were obtained from Sigma-Aldrich.
(§2) The firefly luciferase and Renilla luciferase enzymes were diluted as follows. Firefly luciferase was diluted to 14 ng/ml in Delbecco's Minimal Essential (DMEM) medium (Gibco/Invitrogen) containing 0.1% Prionex®. Renilla luciferase was diluted to 10 ng/ml in DMEM medium containing 0.1% Prionex®.
(§3) The luciferase reactions were initiated by adding 50 μl of the firefly luciferase or Renilla luciferase enzyme solution to 50 μl of reagent solution. The reactions were performed as described above. The retained firefly luciferase and Renilla luciferase luminescence as well as the selectivity values for each quencher were calculated (Table 3). The values listed are based on 0.06% quencher in the reagent solution.

[2] = target: T2, firefly luciferase (Photinus pyralis, UniProt P08659); experiment: Detergent screen with Tergitol NP-9, firefly luciferase (Example 3); format: biochemical; details: 0.06% quencher in reagent solution; 0.5% Tergitol NP-9
T2 sequence (P08659 whole entry): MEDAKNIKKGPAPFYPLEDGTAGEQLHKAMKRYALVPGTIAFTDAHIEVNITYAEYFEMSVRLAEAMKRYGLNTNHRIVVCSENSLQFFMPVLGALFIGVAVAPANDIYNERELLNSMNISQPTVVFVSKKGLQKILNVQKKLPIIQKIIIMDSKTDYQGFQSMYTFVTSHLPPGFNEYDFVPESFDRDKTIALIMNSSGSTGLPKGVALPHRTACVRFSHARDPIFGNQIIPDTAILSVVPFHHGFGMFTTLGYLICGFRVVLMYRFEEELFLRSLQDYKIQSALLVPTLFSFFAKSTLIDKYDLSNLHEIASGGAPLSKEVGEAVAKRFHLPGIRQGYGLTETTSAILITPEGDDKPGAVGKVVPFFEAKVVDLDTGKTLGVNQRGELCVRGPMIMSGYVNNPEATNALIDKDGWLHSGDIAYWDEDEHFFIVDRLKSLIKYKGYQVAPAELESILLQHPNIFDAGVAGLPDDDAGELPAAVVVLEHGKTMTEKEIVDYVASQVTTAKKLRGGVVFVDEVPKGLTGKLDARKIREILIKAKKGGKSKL
Procedure: as §1, §2, §3

[3] = target: T2, firefly luciferase; experiment: Versions of firefly luciferase reagent, firefly luciferase only samples (Example 10); format: biochemical
Procedure: (§4) Eight different versions of firefly luciferase reagent were made. The versions contained one of two luciferin substrates: luciferin or 5′ fluoroluciferin. The versions also differed in whether they contained Coenzyme A and/or DTT (a thiol). All versions of the reagent contained 250 mM HEPES pH 7.4, 16 mM MgSO4, 2 mM ATP and 2 mM luciferin or 5′fluoroluciferin. To create the various versions of the firefly luciferase reagent, 20 mM DTT, 2 mM Coenzyme A, 20 mM DTT and 2 mM Coenzyme A or neither DTT or Coenzyme A was added. In addition, sub-versions of the reagent were created which contained 0.3 mM of the indole (#3077) Renilla luciferase quencher, 0.04% (w:v) of the detergent (4-((dodecyldimethylammonium)methyl)benzoate) Renilla luciferase quencher, both quenchers or neither quencher. In all, a total of 32 versions of firefly luciferase reagent were created (Table 10).
(§5) To mimic the effect of measuring Renilla luciferase luminescence followed by the measurement of firefly luciferase luminescence in a single sample, side-by-side samples (each in triplicate) were used for each version of reagent. The first triplicate of samples comprised one of the versions of firefly luciferase reagent and a firefly luciferase solution (added 1:1) containing F12 medium (Invitrogen), 1 mg/ml BSA (ThermoFisher) and 14 ng/ml QuantiLum® luciferase (Promega). The second triplicate of samples comprised the same version of firefly luciferase reagent used in the first trio and a firefly/Renilla luciferase solution (added 1:1) containing F12 medium, 1 mg/ml BSA, 14 ng/ml QuantiLum® luciferase and 140 ng/ml Renilla luciferase. Firefly and Renilla luciferase luminescence was measured as previously described in both sets of samples at the same time. […] The firefly luciferase measurements were obtained from the samples only containing the firefly luciferase while the Renilla luciferase measurements were obtained from the samples containing both firefly and Renilla luciferases.

[4] = target: T1, Renilla luciferase; experiment: Versions of firefly luciferase reagent, firefly/Renilla luciferase samples (Example 10); format: biochemical; details: firefly/Renilla sample
Procedure: as §4, §5

[5] = target: T1, Renilla luciferase; experiment: Quench of Renilla luciferase luminescence in lysed CHO cells expressing Renilla luciferase (Example 7); format: cell-based; details: for Inhibition (Initial/Addition): 10 μM #3077 and/or 0.04% #1424, 0.5% Tergitol NP-9; for Renilla luciferase luminescence after inhibitor addition: 3 minutes after lysis solution with 0.5% Tergitol NP-9 and 10 μM #3077 and/or 0.04% #1424; for Initial Renilla luciferase luminescence: CHO cells, EnduRen, before inhibitor addition
Procedure: Renilla luciferase was expressed under the control of the CMV promoter in Chinese Hamster Ovary (CHO) cells. The cells were grown in DMEM+10% FBS (Invitrogen). The cells (20,000) were plated in 96-well plates and cultured in the presence of the EnduRen™ Live Cell Substrate (Promega) in order to generate continuous Renilla luciferase-mediated luminescence. After 12 hours of culturing, Renilla luciferase-mediated luminescence was measured. After measurement, the cells were lysed with an equal volume of a solution containing 0.5% Tergitol NP-9 and either 10 μM compound #3077 (non-detergent inhibitor), 0.04% 4-((dodecyldimethylammonium)methyl)benzoate (#1424) (detergent inhibitor), or a combination of the two. The cells were exposed for 3 minutes and Renilla luciferase-mediated luminescence was measured.

[6] = target: T1, Renilla luciferase; experiment: Non-detergent compound screen, Renilla luciferase (Example 6); format: biochemical
Procedure: (§6) Each compound was diluted into 200 mM MOPS pH 6.7, 4 μM MgSO4, 1 mM CDTA, 0.5% Tergitol NP-9, 0.05% Mazu-DF-204, 0.03% BDDABr, 30 mM thiourea, 1 mM bis-(2-mercaptoethylsulfone) (BMS), 4 μM CoA, and 1 μM 5-fluoroluciferin. Just prior to the luciferase reaction, 0.1% Prionex® (Pentapharm) and 2.9 μM coelenterazine-h (Promega) were added to each solution.
(§7) The firefly luciferase and Renilla luciferase enzymes were diluted as described in Examples 3 and 5. The luciferase reactions were initiated by adding 50 μl of the firefly luciferase and Renilla luciferase enzyme solution to 50 μl of reagent solution. The reactions were performed as described above. The retained Renilla and firefly luciferase-mediated luminescence and selectivity values for each inhibitor tested are listed in Table 6.

[7] = target: T2, firefly luciferase; experiment: Non-detergent compound screen, firefly luciferase (Example 6); format: biochemical; details: 0.5% Tergitol NP-9, 0.03% BDDABr, read-out: Retained Firefly Luciferase Value (%)
Procedure: as §6, §7

[8] = target: T1, Renilla luciferase; experiment: Quench of Renilla luciferase luminescence by competitive inhibitors in detergent-containing quenching reagent (Example 1); format: biochemical
Procedure: Renilla luciferase (1×10^−9 M in Renilla Luciferase Lysis Buffer (Promega))+0.1% Prionex (PentaPharma) was added to Renilla Luciferase Assay Buffer (Promega) containing 3 μM coelenterazine-h. The initial Renilla luciferase-mediated luminescence was measured for 10 seconds using a Turner 20/20 n (Turner BioSystems). A quenching reagent containing 50 mM HEPES pH 7.4, 16 mM MgSO4, 1 mM CDTA, 0.5% Tergitol NP-9, 0.015% dodecyltrimethylammonium bromide, 10 mM thiourea, 0.05% Mazu-DF-204 (PGP), and 1.5 mM ATP (Pharmacia) was added to the reactions to reduce the Renilla luciferase-mediated luciferase luminescence. […] After the addition of the inhibitors, a second Renilla luciferase-mediated luminescence reading was taken. Unless otherwise specified, materials were obtained from Sigma-Aldrich.
The quenching agents described herein are effective in the presence of detergents used for cell lysis as well as other quenching agents.

[9] = Luciferin, no thiol, 0.3 mM #3077 and/or 0.04% #1424

Row | Molecule | Retained Renilla Luminescence (%) [1] [%] | Selectivity Value [1] | Retained Firefly Luminescence (%) [2] [%] | Firefly luminescence ([3]; 5′-fluoroluciferin, CoA) | Firefly luminescence ([3]; 5′-fluoroluciferin, DTT) | Firefly luminescence ([3]; 5′-fluoroluciferin, DTT + CoA) | Firefly luminescence ([3]; 5′-fluoroluciferin, no thiol) | Firefly luminescence ([3]; Luciferin, CoA) | Firefly luminescence ([3]; Luciferin, DTT) | Firefly luminescence ([3]; Luciferin, DTT + CoA) | Firefly luminescence [3, 9] | Renilla luminescence ([4]; 5′-fluoroluciferin, CoA) | Renilla luminescence ([4]; 5′-fluoroluciferin, DTT + CoA) | Renilla luminescence ([4]; 5′-fluoroluciferin, DTT) | Renilla luminescence ([4]; 5′-fluoroluciferin, no thiol) | Renilla luminescence ([4]; Luciferin, CoA) | Renilla luminescence ([4]; Luciferin, DTT + CoA) | Renilla luminescence ([4]; Luciferin, DTT) | Renilla luminescence ([4]; Luciferin, no thiol) | Inhibition (Initial/Addition) [5] | further results
1 | CCCCCCCCCCCCOCC[N+](C)(C)Cc1ccccc1.[Cl-] [Benzyldimethyl(2-dodecyloxethyl)ammonium chloride] | 20.5 | 8.5 | 174.0 |  |  |  |  |  |  |  |  |  |  |  |  |  |  |  |  |  | 
2 | CCCCCCCCCCCC[N+](C)(C)Cc1ccc(C(=O)[O-])cc1 [Compound 1424, 4-((Dodecyldimethylammonium)methyl)benzoate] | 20.0 | 6.4 | 127.0 | 2,095,790 | 512,625 | 2,376,253 | 268,289 | 1,621,883 | 291,173 | 1,881,453 | 144,239 | 2,891,880 | 2,833,435 | 1,142,573 | 1,138,027 | 2,240,063 | 2,265,505 | 699,059 | 660,916 | 52 | Renilla luciferase luminescence after inhibitor addition [5]: 19963; Initial Renilla luciferase luminescence [5]: 1037560
3 | CCCC[N+](C)(C)CCc1c[nH]c2ccc(/C=C/C(=O)NCc3ccc(OC)cc3)cc12.[I-] [Compound 3077, (E)-N-(2-(5-(3-(4-methoxybenzylamino)-3-oxoprop-1-enyl)-1H-indol-3-yl)ethyl)-N,N-dimethylbutan-1-aminium iodide] |  |  |  | 2,367,927 | 499,900 | 2,677,367 | 239,138 | 1,502,143 | 252,225 | 1,821,797 | 115,749 | 2,360,350 | 2,653,610 | 514,808 | 280,188 | 1,572,983 | 1,770,665 | 260,392 | 136,759 | 608 | Selectivity Value ([6]; inhibitor 10 μM): 20; remaining activity at 10 µM ([6]; inhibitor 10 μM, 0.5% Tergitol NP-9, 0.03% BDDABr, read-out: Retained Renilla Luciferase Value (%)): 5%; Selectivity Value ([6]; inhibitor 100 μM): 98; remaining activity at 100 µM ([6]; inhibitor 100 μM, 0.5% Tergitol NP-9, 0.03% BDDABr, read-out: Retained Renilla Luciferase Value (%)): 1%; Selectivity Value ([6]; inhibitor 1000 μM): 980; remaining activity at 1000 µM ([6]; inhibitor 1000 μM, 0.5% Tergitol NP-9, 0.03% BDDABr, read-out: Retained Renilla Luciferase Value (%)): 0.1%; effectiveness at quenching Renilla luciferase-mediated luminescence relative to #1424 alone ([5]; 10 μM #3077 vs 0.04% #1424): about 12 fold; Renilla luciferase luminescence after inhibitor addition [5]: 1402; Initial Renilla luciferase luminescence [5]: 852596; remaining activity at 10 µM ([7]; inhibitor 10 μM): 100%; remaining activity at 100 µM ([7]; inhibitor 100 μM): 98%; remaining activity at 1000 µM ([7]; inhibitor 1000 μM): 98%
4 | CCCCCCCCCCCC[N+](C)(C)Cc1ccc2c(c1)CCCC2.[Cl-] [Dimethyldodecyl(5,6,7,8-tetrahydro-2-naphthylmethyl)ammonium chloride] | 118.0 | 0.9 | 112.0 |  |  |  |  |  |  |  |  |  |  |  |  |  |  |  |  |  | 
5 | methylether coelenterazine-hh |  |  |  |  |  |  |  |  |  |  |  |  |  |  |  |  |  |  |  |  | Reduction in Renilla luciferase luminescence after 2nd measurement ([8]; Quench Reagent + 10 μM inhibitor): 21-fold; Reduction in Renilla luciferase luminescence after 2nd measurement ([8]; Quench Reagent + 100 μM inhibitor): 34-fold
